Reference: DBAASP
Values after ≈ are worked out from the molar mass of the structure shown.

Tests used:
Assay in all cases: ≥ marks a high value that may be exact or a test limit, other limits are often not marked, values filed in µg/mL are converted to µM
[1] = tested on: Streptococcus mitis ATCC 903
[2] = tested on: Lacticaseibacillus casei ATCC 4646
[3] = tested on: Streptococcus gordonii Challis DL1
[4] = tested on: Streptococcus mutans
[5] = tested on: Veillonella atypica PK1910
[6] = tested on: Streptococcus sanguinis NY101
[7] = tested on: Escherichia coli
[8] = tested on: Cryptococcus neoformans
[9] = tested on: Streptococcus pneumoniae
[10] = tested on: Candida albicans
[11] = tested on: Bacillus subtilis
[12] = tested on: Staphylococcus aureus
[13] = tested on: Salmonella typhimurium
[14] = tested on: Serratia marcescens
[15] = tested on: Pseudomonas putida
[16] = tested on: Saccharomyces cerevisiae
[17] = tested on: Bacillus subtilis IFO 3134
[18] = tested on: Leuconostoc lactis
[19] = tested on: Enterococcus faecalis
[20] = tested on: Micrococcus luteus
[21] = tested on: Escherichia coli IFO 12734
[22] = tested on: Pseudomonas aeruginosa IFO 12582
[23] = tested on: Staphylococcus aureus IFO 12732
[24] = tested on: Listeria innocua
[25] = tested on: Bacillus cereus
[26] = tested on: Streptococcus uberis
[27] = tested on: Staphylococcus epidermidis
[28] = tested on: Pasteurella multocida

Row | Structure (SMILES) | MIC [4] [µM] | MIC [7] [µM] | MIC [12] [µM] | MIC [17] [µM] | MIC [18] [µM] | MIC [19] [µM] | MIC [20] [µM] | MIC [21] [µM] | MIC [22] [µM] | MIC [23] [µM] | MIC [24] [µM] | MIC [25] [µM] | MIC [26] [µM] | MIC [27] [µM] | MIC [28] [µM] | further results
1 | NCCCC[C@H](NC(=O)[C@H](Cc1c[nH]c2ccccc12)NC(=O)[C@H](Cc1ccccc1)NC(=O)[C@H](CCCCN)NC(=O)[C@H](CCCCN)NC(=O)[C@@H](N)Cc1ccccc1)C(=O)N[C@@H](Cc1c[nH]c2ccccc12)C(=O)N[C@@H](Cc1ccccc1)C(=O)N[C@@H](CCCN=C(N)N)C(=O)N[C@@H](CCCN=C(N)N)C(=O)N[C@@H](Cc1ccccc1)C(=O)NCC(=O)NCC(=O)NCC(=O)N[C@@H](CCCN=C(N)N)C(=O)N[C@@H](Cc1c[nH]c2ccccc12)C(=O)N[C@@H](CCCN=C(N)N)C(=O)N[C@@H](Cc1c[nH]c2ccccc12)C(=O)N[C@@H](CCCN=C(N)N)C(=O)N[C@@H](Cc1c[nH]c2ccccc12)C(=O)N[C@@H](Cc1ccccc1)C(N)=O [FKKFWKWFRRFGGGRWRWRWF] | 2.65 (≈ 8 µg/mL) |  |  |  |  |  |  |  |  |  |  |  |  |  |  | MIC [1]: 21.2 µM (≈ 64 µg/mL); MIC [2]: 2.65 µM (≈ 8 µg/mL); MIC [3]: 10.6 µM (≈ 32 µg/mL); MIC [5]: 2.65 µM (≈ 8 µg/mL); MIC [6]: 5.3 µM (≈ 16 µg/mL)
2 | CC(C)C[C@H](NC(=O)[C@H](CC(C)C)NC(=O)[C@H](CCCN=C(N)N)NC(=O)[C@H](Cc1cnc[nH]1)NC(=O)[C@@H](NC(=O)[C@H](CCCN=C(N)N)NC(=O)CNC(=O)[C@@H](NC(=O)[C@@H]1CCCN1C(=O)[C@H](Cc1ccccc1)NC(=O)[C@H](CCC(N)=O)NC(=O)[C@H](CC(C)C)NC(=O)CNC(=O)[C@H](C)NC(=O)[C@@H](N)CCCN=C(N)N)C(C)C)C(C)C)C(=O)O [RAGLQFPVGRVHRLL] | ≥ 37.2 | 37.2 (≈ 64 µg/mL) | 74.5 (≈ 128 µg/mL) |  |  |  |  |  |  |  |  |  |  |  |  | MIC [8]: ≥ 74.5 µM; MIC [9]: ≥ 74.5 µM; MIC [10]: > 149 µM; MIC [11]: ≥ 37.2 µM; MIC [13]: 18.6 µM (≈ 32 µg/mL); MIC [14]: ≥ 37.2 µM; MIC [15]: ≥ 37.2 µM; MIC [16]: ≥ 149 µM
3 | CC[C@H](C)[C@H](NC(=O)[C@H](C)NC(=O)[C@@H]1CCCN1C(=O)[C@@H](NC(=O)[C@@H](NC(=O)[C@H](Cc1cnc[nH]1)NC(=O)[C@H](C)NC(=O)[C@H](C)NC(=O)[C@@H](NC(=O)[C@H](CCCCN)NC(=O)[C@H](C)NC(=O)[C@H](CC(C)C)NC(=O)[C@@H](NC(=O)CNC(=O)[C@@H](N)Cc1ccccc1)C(C)C)C(C)C)C(C)C)C(C)C)C(=O)N[C@@H](C)C(=O)N[C@@H](CCC(=O)O)C(=O)N[C@@H](Cc1cnc[nH]1)C(=O)N[C@@H](Cc1ccccc1)C(N)=O [FGVLAKVAAHVVPAIAEHF] |  | > 50.6 |  | ≥ 64 | ≥ 50.6 | ≥ 50.6 | ≥ 50.6 | ≥ 64 | ≥ 64 | ≥ 64 | ≥ 50.6 | ≥ 50.6 | ≥ 50.6 | ≥ 50.6 | ≥ 50.6 | 
4 | CC[C@H](C)[C@H](N=C(O)[C@H](C)N=C(O)[C@H](C)N=C(O)[C@@H](N=C(O)[C@@H](N=C(O)[C@H](Cc1cnc[nH]1)N=C(O)[C@H](C)N=C(O)[C@H](C)N=C(O)[C@@H](N=C(O)[C@H](CCCCN)N=C(O)[C@H](C)N=C(O)[C@H](CC(C)C)N=C(O)[C@@H](N=C(O)CN=C(O)[C@H](Cc1ccccc1)N=C(O)[C@H](CC(C)C)N=C(O)CN)C(C)C)C(C)C)C(C)C)C(C)C)C(O)=N[C@@H](C)C(O)=N[C@@H](CCC(=O)O)C(O)=N[C@@H](Cc1cnc[nH]1)C(O)=N[C@@H](Cc1ccccc1)C(=N)O [GLFGVLAKVAAHVVAAIAEHF] |  | > 47.2 | 33.3 (≈ 70.7 µg/mL) | 8 (≈ 17 µg/mL) | 5.66 (≈ 12 µg/mL) | ≥ 47.2 | 23.6 (≈ 50 µg/mL) | ≥ 64 | ≥ 64 | 4 (≈ 8.48 µg/mL) | ≥ 47.2 | ≥ 47.2 | 23.6 (≈ 50 µg/mL) | ≥ 47.2 | ≥ 47.2 | 
